Assay results from article PMC8462099 (Molecular cell, 2021).

Tests used:
AMPKγ1 [1] = biological target: T1, AMPKγ1 (Homo sapiens, UniProt P54619); test: [3H]AMP binding to GST fusion protein
AMPKγ1 [2] = biological target: T1, AMPKγ1; test: [3H]inositol saturation binding

T1 sequence (P54619 whole entry, the tested form may be a part): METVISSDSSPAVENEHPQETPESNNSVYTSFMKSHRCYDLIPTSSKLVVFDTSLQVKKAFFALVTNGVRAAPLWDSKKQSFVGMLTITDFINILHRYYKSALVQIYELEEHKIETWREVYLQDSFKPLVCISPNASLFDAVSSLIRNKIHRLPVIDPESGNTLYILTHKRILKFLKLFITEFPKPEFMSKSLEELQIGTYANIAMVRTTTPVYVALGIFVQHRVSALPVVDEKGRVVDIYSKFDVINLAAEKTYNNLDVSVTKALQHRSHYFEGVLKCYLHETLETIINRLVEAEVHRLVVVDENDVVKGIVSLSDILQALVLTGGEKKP

| IC50 (AMPKγ1 [1]) | Kd (AMPKγ1 [2]) | Structure (SMILES) |
| --- | --- | --- |
| 1.9 µM |  | Nc1ncnc2c1ncn2[C@@H]1O[C@H](COP(=O)(O)O)[C@@H](O)[C@H]1O [AMP] |
|  | 98.2 pmol | O[C@H]1[C@H](O)[C@@H](O)[C@H](O)[C@@H](O)[C@H]1O [Ins, inositol] |
